Experimental data reported in patent publication US8440199B2, “Methods for mobilizing mesenchymal stem cells in a patient” (Imperial Innovations Limited, priority 2007, dated 2013).

Experiments:
[1] = test system: haematopoietic progenitor cells (HPC); test: Example 1: HPC mobilisation, hind limb bone marrow perfusion and circulating blood, CFU-HPC assay; type: in vivo, mice; conditions: G-CSF or VEGF 2.5 μg on 4 consecutive days, then AMD3100 (0.1 mM infusion or 5 mg/kg i.p.); perfusate and blood, FIGS. 1-4
Protocol: Assay was performed in duplicate Mobilised cells were maintained in semi-solid methylcellulose cultures for 11 days before quantification of the number of CFU-HPCs.

[2] = Total number of cells in the femurs; type: in vivo; conditions: treated over 4 days; not significantly different compared to control mice
Protocol: 24 hours after the last injection, bone marrow was aspirated for the enumeration of a, CFU-HPC bone marrow frequency; b, CFU-EPC bone marrow frequency; and c, CFU-SPC bone marrow frequency.
(§2) 24 hours after the last injection, mice were administered a CXCR4 antagonist (AMD3100, 5 mg/kg i.p), KC (30 μg/kg i.v.) or vehicle and blood was collected via cardiac puncture 60 minutes later for enumeration of circulating leukocyte, HPC, EPC, and stromal progenitor cell levels.
(§3) The perfusate was centrifuged and re-suspended in DMEM+20% FBS. In some experiments citrated blood was obtained via cardiac bleed and lysed for red blood cells. Bone marrow and perfusate cytospins, and blood smears were stained using DiffQuik for the enumeration of mononuclear cells, eosinophils, and neutrophils. Bone marrow, perfusate and lysed blood were then used for assays outlined below to enumerate HPCs (CFU-HPC), EPCs (CFU-EPC), SPCs (CFU-F).

HPCs [3] = test: In vitro chemotaxis of bone marrow HPCs towards SDF-1α; type: cell-based; conditions: bone marrow cells of mice treated 4 days; 30 nM SDF-1α, FIG. 23d, 23f
Protocol: (§1) Bone marrow was aspirated on day 5 and harvested cells were used to determine a, SDF-1α levels in bone marrow supernatant as determined by ELISA; b, % of bone marrow Lin^− Sca-1^+ cells expressing CXCR4; and c, % of bone marrow CD34^+ VEGFR2^+ cells expressing CXCR4. Harvested cells were also utilized in the following chemotaxis assays: d, number of HPCs; and e, EPCs undergoing chemotaxis towards 30 nM SDF-1α. Cells taken from bone marrow of mice treated with G-CSF (closed bars) or vehicle (PBS, open bars). f, number of HPCs; and g, EPCs undergoing chemotaxis towards 30 nM SDF-1α.

Lin^− Sca-1^+ HPCs = test: PI staining, cell cycle status of Lin- Sca-1+ HPCs; type: in vivo, mice; conditions: treated 4 days, FIG. 25c
Protocol: For flow cytometric analysis, cells were re-suspended in FACS buffer. To identify neutrophils in the bone marrow, surface expression of the granulocyte marker Ly-6G/Ly6C (Gr-1) was determined. Neutrophils were identified as Gr-1^high positive cells with a characteristic high side scatter profile. HPCs residing in the BM were selected as being negative for lineage (Lin^−) markers: CD3e, CD11b, CD45R, Ly-76, and Gr-1 and positive for Sca-1 (Lin^− Sca-1^+ cells) (Gerber et al., 2002; Uchida, et al., 1997). EPCs residing in the BM were selected as being positive for both CD34 and VEGFR2 (CD34^+ VEGFR2^+ cells) (Asahara et al., 1997; Yoon et al., 2005). […] Samples were then washed and then quantified on a FACSAria cell sorter (BD Biosciences, Oxford, United Kingdom) and analysed using FACSDiva software.
Lin^− Sca-1^+ cells and CD34^+ VEGFR2^+ cells were analysed to determine their cell cycling status using a propidium iodide (PI) stain. […] A dotplot of PI-Width against PI-Area was recorded. Aggregates of cells were detected as cells having a larger PI-W profile and were not included in the gate. […] To calculate the percentage of cells undergoing active cell cycling, a marker was set to exclude the G0/G1 peak and the percentage of cells in S/G2/M was calculated.

neutrophils = conditions: VEGF pre-treatment 4 days, KC 30 μg/kg i.v., 60 minutes, FIG. 24c
Protocol: 24 hours later these mice underwent perfusion of the right hind limb. CXCR4 antagonist (AMD3100 0.1 mM, closed bars) or vehicle (PBS, open bars) were then infused directly into the femoral artery for 10 minutes. The hind limb was then perfused for a further 50 minutes to allow collection of a, neutrophils via the femoral vein. […] The hind limb was again perfused for a further 50 minutes to allow b, collection of neutrophils. […] Data: mean±s.e.m. *: P<0.05, ***: P<0.001 between selected groups.
Female BALB/c mice were purchased from Harlan (Oxford, United Kingdom). […] 24 hours after the last injection, mice were administered a CXCR4 antagonist (AMD3100, 5 mg/kg i.p), KC (30 μg/kg i.v.) or vehicle and blood was collected via cardiac puncture 60 minutes later for enumeration of circulating leukocyte, HPC, EPC, and stromal progenitor cell levels.
as §3

HPCs [4] = test: Circulating CFU-HPC in blood; conditions: agent alone (AMD3100 5 mg/kg i.p., blood at 60 min; G-CSF or VEGF once daily for 4 days), FIG. 20b
Protocol: a, Experimental protocol. […] 24 hours after the last injection, mice were administered a CXCR4 antagonist (AMD3100 5 mg/kg i.p, closed bars) or vehicle (PBS, open bars). 60 minutes later, blood was taken for analysis of circulating: b, CFU-HPC; c, CFU-EPC; and d, CFU-SPC. CFU-HPC, CFU-EPC, and CFU-SPC are shown as number of colonies per ml blood. n=5-8 mice per group. Data: means±s.e.m. *: P<0.05, **: P<0.01, ***: P<0.001 between selected groups.
as §2
In some experiments citrated blood was obtained via cardiac bleed and lysed for red blood cells. […] Bone marrow, perfusate and lysed blood were then used for assays outlined below to enumerate HPCs (CFU-HPC), EPCs (CFU-EPC), SPCs (CFU-F).
5×10^4 cells were added to Methocult medium (Stem cell technologies) supplemented with specific cytokines and growth factors to enable formation of CFU-HPC. Mobilized cells were incubated for 11 days before quantification.
The total number of colony forming units mobilized was calculated according to the number of colonies per plate×by the total number of leukocytes mobilized/number of cells seeded.

EPCs [5] = test: In vitro chemotaxis of bone marrow EPCs towards SDF-1α; type: cell-based; conditions: bone marrow cells of mice treated 4 days; 30 nM SDF-1α, FIG. 23e, 23g
Protocol: as §1

EPCs [6] = test: In situ perfusion of mouse hind limb, CFU-EPC in perfusate; type: in vivo, mice; conditions: for EPC mobilization from the bone marrow: FIG. 21c

## VEGF
[1]
  HPC mobilization: inhibits the capacity for AMD3100 to mobilize HPCs
[2]
  total number of cells in the femurs: 1.07±0.11×10^7 cells/femur
HPCs [3]
  HPC chemotaxis towards SDF-1α: abolished the ability of HPCs to migrate to SDF-1α
Lin^− Sca-1^+ HPCs
  percentage of Lin- Sca-1+ HPCs in S/G2/M phase of the cell-cycle: significant increase in the percentage of BM-HPCs
neutrophils
  KC-induced mobilization of neutrophils in vivo: completely abrogated
HPCs [4]
  circulating numbers of HPCs: did not increase circulating numbers of HPCs
EPCs [5]
  EPC chemotaxis towards SDF-1α: had no effect on EPC migration
EPCs [6]; agent alone (CXCR4 antagonist 0.1 mM infused 10 min; G-CSF or VEGF pre-treatment 4 days)
  EPC mobilization from the bone marrow: significant EPC mobilization
EPCs [6]; growth factor (50 nM) infused into femoral artery for 10 minutes, alone, FIG. 31b
  EPC mobilization, acute administration: mobilized both HPCs and EPCs
EPCs [6]; growth factor pre-treatment 4 days, then CXCR4 antagonist infused
  EPC mobilization from the bone marrow: an additive effect was observed for EPC mobilization
